# According to ChEMBL document CHEMBL4007428, “Modulating the selectivity of matriptase-2 inhibitors with unnatural amino acids” (Eur J Med Chem, 2017):
# Experiments:
# [1] = biological target: T1, Suppressor of tumorigenicity 14 protein (Homo sapiens, UniProt Q9Y5Y6)
# T1 sequence (Q9Y5Y6 whole entry): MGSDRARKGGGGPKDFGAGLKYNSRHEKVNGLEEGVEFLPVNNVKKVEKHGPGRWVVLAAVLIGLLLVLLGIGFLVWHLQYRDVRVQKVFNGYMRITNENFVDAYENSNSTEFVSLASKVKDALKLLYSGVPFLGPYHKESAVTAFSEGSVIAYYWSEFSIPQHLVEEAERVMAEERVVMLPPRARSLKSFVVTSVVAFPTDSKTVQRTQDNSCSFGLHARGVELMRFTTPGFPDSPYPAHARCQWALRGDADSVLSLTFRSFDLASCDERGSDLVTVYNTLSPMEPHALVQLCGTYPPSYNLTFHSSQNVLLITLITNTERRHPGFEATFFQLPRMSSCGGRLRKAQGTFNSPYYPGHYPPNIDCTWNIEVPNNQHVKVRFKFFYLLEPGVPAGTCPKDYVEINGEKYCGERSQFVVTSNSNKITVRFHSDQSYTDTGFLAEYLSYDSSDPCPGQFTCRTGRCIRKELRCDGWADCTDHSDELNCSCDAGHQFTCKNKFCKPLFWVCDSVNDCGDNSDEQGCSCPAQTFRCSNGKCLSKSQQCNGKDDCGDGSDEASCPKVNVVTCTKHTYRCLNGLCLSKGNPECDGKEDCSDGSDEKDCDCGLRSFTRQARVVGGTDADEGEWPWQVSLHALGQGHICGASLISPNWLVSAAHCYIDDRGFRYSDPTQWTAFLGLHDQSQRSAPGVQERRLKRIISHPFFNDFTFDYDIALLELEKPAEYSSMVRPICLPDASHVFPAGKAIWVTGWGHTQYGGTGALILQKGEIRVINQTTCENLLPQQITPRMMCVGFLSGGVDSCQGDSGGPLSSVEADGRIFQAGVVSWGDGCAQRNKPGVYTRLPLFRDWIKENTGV
# Description: Inhibition of recombinant human matriptase (596 to 855 residues) expressed in Escherichia coli using Boc-Gln-Ala-ArgAMC as substrate measured for 1200 mins by fluorescence assay
# [2] = species on record: Homo sapiens; test: Selectivity ratio of Ki for recombinant human matriptase (596 to 855 residues) expressed in Escherichia coli to Ki for recombinant human C-terminal V5-His-tagged matriptase-2 expressed in Drosophila S2 cells
# [3] = biological target: T2, Transmembrane protease serine 6 (Homo sapiens, UniProt Q8IU80); test: Inhibition of recombinant human C-terminal V5-His-tagged matriptase-2 expressed in Drosophila S2 cells using Boc-Gln-Ala-ArgAMC as substrate measured for 1200 mins by fluorescence assay
# T2 sequence (Q8IU80 whole entry): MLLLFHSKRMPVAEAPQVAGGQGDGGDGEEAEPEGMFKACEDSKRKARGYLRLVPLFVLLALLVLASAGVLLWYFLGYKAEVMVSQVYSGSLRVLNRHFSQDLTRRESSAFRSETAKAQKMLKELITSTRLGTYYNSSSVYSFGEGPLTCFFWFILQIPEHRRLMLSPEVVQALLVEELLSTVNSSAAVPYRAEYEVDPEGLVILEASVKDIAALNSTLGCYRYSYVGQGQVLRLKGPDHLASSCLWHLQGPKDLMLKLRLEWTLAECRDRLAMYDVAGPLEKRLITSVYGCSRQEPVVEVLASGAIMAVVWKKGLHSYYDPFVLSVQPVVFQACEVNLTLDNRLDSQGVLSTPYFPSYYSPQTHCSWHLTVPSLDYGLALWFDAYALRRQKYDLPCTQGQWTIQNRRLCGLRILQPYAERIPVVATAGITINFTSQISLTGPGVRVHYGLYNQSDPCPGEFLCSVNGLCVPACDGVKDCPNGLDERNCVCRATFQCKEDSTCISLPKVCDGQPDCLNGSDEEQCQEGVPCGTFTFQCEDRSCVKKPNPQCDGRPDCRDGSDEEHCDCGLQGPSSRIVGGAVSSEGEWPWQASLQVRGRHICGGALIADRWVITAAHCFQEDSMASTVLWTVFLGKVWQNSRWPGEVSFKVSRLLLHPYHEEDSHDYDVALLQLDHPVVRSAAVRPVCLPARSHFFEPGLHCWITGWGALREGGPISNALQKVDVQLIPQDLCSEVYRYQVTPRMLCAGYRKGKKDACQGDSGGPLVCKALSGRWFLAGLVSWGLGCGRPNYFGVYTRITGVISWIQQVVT
# [4] = Stability in mouse plasma assessed as parent compound remaining after 24 hrs; type: ADME, cell-free; conditions: read-out: Stability
# [5] = biological target: T3, Transmembrane protease serine 6 (Homo sapiens) (UniProt Q8IU80); test: Reversible inhibition of recombinant human C-terminal V5-His-tagged matriptase-2 expressed in Drosophila S2 cells assessed as dissociation half time using Boc-Gln-Ala-ArgAMC as substrate measured for 1200 mins by fluorescence assay
# T3 sequence (whole entry): T2 sequence (Q8IU80 whole entry)
SMILES,Ki [1] [nM],Ratio Ki [2],Ki [3] [nM],remaining at 24 h [4] [%],T1/2 [5] [min]
"N=C(N)NCCC[C@H](NC(=O)[C@H](Cc1ccc(O)c(O)c1)NC(=O)C(Cc1ccc(O)cc1)NC(=O)[C@@H](N)Cc1ccc(O)cc1)C(=O)c1nc2ccccc2s1 (single isomer, unassigned)",12,2,5,–,–
CC(C)[C@H](NC(=O)[C@H](Cc1ccc(O)cc1)NC(=O)CC12CC3CC(CC(C3)C1)C2)C(=O)N[C@@H](CCCNC(=N)N)C(=O)c1nc2ccccc2s1,39,6,6,–,–
CC[C@@H](C)[C@H](NC(=O)[C@H](CCc1ccccc1)NC(=O)CCc1ccccc1)C(=O)N[C@@H](CCCNC(=N)N)C(=O)c1nc2ccccc2s1,51,20,2.6,–,–
"N=C(N)NCCC[C@H](NC(=O)[C@H](Cc1cccs1)NC(=O)C(Cc1ccc(O)cc1)NC(=O)[C@@H](N)Cc1ccc(O)cc1)C(=O)c1nc2ccccc2s1 (single isomer, unassigned)",19,3,6,–,–
CC(C)[C@H](NC(=O)[C@H](CCc1ccccc1)NC(=O)CCc1ccccc1)C(=O)N[C@@H](CCCNC(=N)N)C(=O)c1nc2ccccc2s1,65,31,2.1,–,–
CCC[C@H](NC(=O)[C@H](CCc1ccccc1)NC(=O)CCc1ccccc1)C(=O)N[C@@H](CCCNC(=N)N)C(=O)c1nc2ccccc2s1,26,11,2.3,–,–
CC(C)[C@H](NC(=O)[C@H](Cc1cccc(Cl)c1)NC(=O)[C@@H](N)Cc1ccc(O)cc1)C(=O)N[C@@H](CCCNC(=N)N)C(=O)c1nc2ccccc2s1,34,7,5,–,–
"CC(C)[C@H](NC(=O)C(Cc1ccc(O)cc1)NC(=O)CCc1ccc(O)cc1)C(=O)N[C@@H](CCCNC(=N)N)C(=O)c1nc2ccccc2s1 (single isomer, unassigned)",34 to 38,17,1.2 to 2,40,24
"CC(C)[C@H](NC(=O)C(Cc1ccc(O)cc1)NC(=O)[C@@H](N)Cc1ccc(O)cc1)C(=O)N[C@@H](CCCNC(=N)N)C(=O)c1nc2ccccc2s1 (single isomer, unassigned)",–,12,–,0,–
CC(C)[C@@H](NC(=O)[C@H](CCc1ccccc1)NC(=O)CCc1ccccc1)C(=O)N[C@@H](CCCNC(=N)N)C(=O)c1nc2ccccc2s1,240,34,7,–,–
CC[C@H](C)[C@H](NC(=O)[C@H](CCc1ccccc1)NC(=O)CCc1ccccc1)C(=O)N[C@@H](CCCNC(=N)N)C(=O)c1nc2ccccc2s1,230,58,4,–,–
CC(C)[C@H](NC(=O)[C@H](Cc1ccc(OCc2ccccc2)cc1)NC(=O)CCc1ccccc1)C(=O)N[C@@H](CCCNC(=N)N)C(=O)c1nc2ccccc2s1,71,20,3.5,–,–
"N=C(N)NCCC[C@H](NC(=O)[C@H](Cc1ccc(O)cc1)NC(=O)C(Cc1ccc(O)cc1)NC(=O)[C@@H](N)Cc1ccc(O)cc1)C(=O)c1nc2ccccc2s1 (single isomer, unassigned)",7,6,1.1,–,–
CC(C)(C)[C@H](NC(=O)[C@H](CCc1ccccc1)NC(=O)CCc1ccccc1)C(=O)N[C@@H](CCCNC(=N)N)C(=O)c1nc2ccccc2s1,15000,27,560,–,–
CC[C@H](NC(=O)[C@H](CCc1ccccc1)NC(=O)CCc1ccccc1)C(=O)N[C@@H](CCCNC(=N)N)C(=O)c1nc2ccccc2s1,20 to 21,13,1.5 to 1.6,–,18
"N=C(N)NCCC[C@H](NC(=O)[C@H](Cc1cscn1)NC(=O)C(Cc1ccc(O)cc1)NC(=O)[C@@H](N)Cc1ccc(O)cc1)C(=O)c1nc2ccccc2s1 (single isomer, unassigned)",20,2,13,–,–
C[C@@H](O)[C@H](NC(=O)[C@H](CCc1ccccc1)NC(=O)CCc1ccccc1)C(=O)N[C@@H](CCCNC(=N)N)C(=O)c1nc2ccccc2s1,120,23,5.3,–,–
CC[C@@H](C)[C@@H](NC(=O)[C@H](CCc1ccccc1)NC(=O)CCc1ccccc1)C(=O)N[C@@H](CCCNC(=N)N)C(=O)c1nc2ccccc2s1,150,30,5,–,–
CC(C)[C@H](NC(=O)[C@H](Cc1cscn1)NC(=O)CCc1ccccc1)C(=O)N[C@@H](CCCNC(=N)N)C(=O)c1nc2ccccc2s1,4 to 12,10,0.4 to 1.2,> 75,48
"CC(C)[C@H](NC(=O)C(Cc1ccc(O)cc1)NC(=O)CCc1ccccc1)C(=O)N[C@@H](CCCNC(=N)N)C(=O)c1nc2ccccc2s1 (single isomer, unassigned)",43,25,1.74,–,–
CC[C@H](C)[C@@H](NC(=O)[C@H](CCc1ccccc1)NC(=O)CCc1ccccc1)C(=O)N[C@@H](CCCNC(=N)N)C(=O)c1nc2ccccc2s1,12000,17,690,–,–
C[C@H](O)[C@H](NC(=O)[C@H](CCc1ccccc1)NC(=O)CCc1ccccc1)C(=O)N[C@@H](CCCNC(=N)N)C(=O)c1nc2ccccc2s1,200,64,3.1,> 75,–
"CC(C)CCC(=O)NC(Cc1ccc(O)cc1)C(=O)N[C@H](C(=O)N[C@@H](CCCNC(=N)N)C(=O)c1nc2ccccc2s1)C(C)C (single isomer, unassigned)",28,5,6,–,–
"N=C(N)NCCC[C@H](NC(=O)[C@H](Cc1c[nH]cn1)NC(=O)C(Cc1ccc(O)cc1)NC(=O)[C@@H](N)Cc1ccc(O)cc1)C(=O)c1nc2ccccc2s1 (single isomer, unassigned)",48,0.9,56,–,–
"N=C(N)NCCC[C@H](NC(=O)[C@H](Cc1ccc2ccccc2c1)NC(=O)C(Cc1ccc(O)cc1)NC(=O)[C@@H](N)Cc1ccc(O)cc1)C(=O)c1nc2ccccc2s1 (single isomer, unassigned)",–,–,5.3,–,–
CC(C)C[C@H](NC(=O)[C@H](CCc1ccccc1)NC(=O)CCc1ccccc1)C(=O)N[C@@H](CCCNC(=N)N)C(=O)c1nc2ccccc2s1,120,23,5.2,–,–
"N=C(N)NCCC[C@H](NC(=O)[C@H](Cc1c[nH]c2ccccc12)NC(=O)C(Cc1ccc(O)cc1)NC(=O)[C@@H](N)Cc1ccc(O)cc1)C(=O)c1nc2ccccc2s1 (single isomer, unassigned)",5.6,2,3.1,–,–
"N=C(N)NCCC[C@H](NC(=O)[C@@H](NC(=O)C(Cc1ccc(O)cc1)NC(=O)CCc1ccccc1)C(c1ccccc1)c1ccccc1)C(=O)c1nc2ccccc2s1 (single isomer, unassigned)",1380,4,340,–,–
CC(C)[C@H](NC(=O)[C@H](Cc1ccccc1)NC(=O)[C@@H](N)Cc1ccc(O)cc1)C(=O)N[C@@H](CCCNC(=N)N)C(=O)c1nc2ccccc2s1,63,7,9,–,–
